# Patent US5760036A, “Aminediol protease inhibitors” (E. R. Squibb & Sons, Inc., priority 1995, dated 1998)
# Target: T1, HIV protease (Human immunodeficiency virus type 1 group M subtype B, UniProt P04585)
# T1 construct: and purified protease
# Assay: HIV Protease Assay
# Format: biochemical
# Settings: 10 μM inhibitor, 4% DMSO, 450 μM substrate, pH 5.5, 30 minutes at 37° C., RP-HPLC
# Description: An HIV protease standard assay was performed in a 60 μl reaction medium containing 50 mM sodium acetate, pH 5.5, 100 μg/ml bovine serum albumen,450 μM substrate (H2 N-Val-Ser-Gln-Asn-(β-naphthyl-alanine)-Pro-Val-Ile-OH), and purified protease. The reaction medium was incubated for 30 minutes at 37° C., quenched by the addition of 140 μl 5% H3 PO4, then analyzed by reverse phase HPLC using UV220 detection. In a typical control assay, 7% of the substrate was hydrolyzed. Aminediol inhibitors of the present invention, listed in the following Table 1, were then employed in the assay, for which purpose they were prepared as a […] solution in DMSO, then diluted to 30 μM with 50 mM sodium acetate/bovine serum albumen. This working stock was then diluted three-fold into the protease reaction medium, for a final concentration of 10 μM inhibitor and 4% DMSO.
row,SMILES,HIV Protease % Inhibition at 10 μM [%]
1,"CC(C)(C)OC(=O)N[C@@H](Cc1ccccc1)[C@H](O)CNC[C@@H](O)[C@H](Cc1ccccc1)NC(=O)C(O)(CO)C(C)(C)C (single isomer, unassigned; isomer b) [Compound 367, [1S-[1R*,2S*(2S*,3R*)]]-[3-[[3-[[2-Hydroxy-2-(hydroxymethyl)-3.3-dimethyl-l-oxobutyl]amino]-2-hydroxy-4-phenylbutyl]amino]-2-hydroxy-1-(phenylmethyl)propyl]carbamic acid. 1.1-dimethylethyl ester, isomer B]",50
2,"CC(C)(C)OC(=O)N[C@@H](Cc1ccccc1)[C@H](O)CNC[C@@H](O)[C@H](Cc1ccccc1)NC(=O)C1(O)COCC1(C)C (single isomer, unassigned; isomer b) [Compound 365, [1S-[1R*,2S*(2S*,3R*)]]-[2-Hydroxy-3-[[tetrahydro-3-hydroxy-4,4-dimethyl-3-furanyl)carbonyl]amino]-4-phenylbutyl]amino]-l-(phenylmethyl)-propyl]carbamic acid, 1,1-dimethylethyl ester, Isomer B]",72

# More lines, now with the values ahead:
row,HIV Protease % Inhibition at 10 μM [%],SMILES
1,37,"CC(C)(C)OC(=O)N[C@@H](Cc1ccccc1)[C@H](O)CNC[C@@H](O)[C@H](Cc1ccccc1)NC(=O)C1NC(=O)OC1(C)C (single isomer, unassigned; isomer a) [Compound 239, [1S-[1R*,2S*(2S*,3R*)]]-[3-[[3-[[(5,5-Dimethyl-2-oxo-4-oxazolidinyl)carbonyl]amino]-2-hydroxy-4-phenylbutyl]amino]-2-hydroxy-1-(phenylmethyl)propyl]carbamic acid, 1,1-dimethylethyl ester, isomer A]"
2,87,"CC(C)(C)OC(=O)N[C@@H](Cc1ccccc1)[C@H](O)CNC[C@@H](O)[C@H](Cc1ccccc1)NC(=O)C(O)C(F)(F)F (single isomer, unassigned; isomer b) [Compound 272, [1S-[1R*,2S*(2S*,3R*)]]-[2-Hydroxy-1-(phenylmethyl)-3-[[2-hydroxy-4-phenyl-3-[(3.3,3-trifluoro-2-hydroxy-1-oxopropyl)amino]butyl]amino]propyl]carbamic acid,1,1-dimethylethyl ester (isomer B)]"

# Same assay, conditions: pH 5.5, 10 μM inhibitor, 4% DMSO, 450 μM substrate, pH 5.5, 30 minutes at 37° C., RP-HPLC; read-out: HIV Protease % Inhibition at 10 μM
row,SMILES,inhibition at 10 µM [%]
1,"CC(C)(C)OC(=O)N[C@@H](Cc1ccccc1)[C@H](O)CNC[C@@H](O)[C@H](Cc1ccccc1)NC(=O)[C@H](CCCCN)NC(=O)OCc1ccccc1 [Compound 89, [S-[1R*,2S*(2S*,3R*)[[-N-[3-[[3-[[(1,1-Dimethylethoxy)carbonyl]amino]-2-hydroxy-4-phenylbutyl]amino]-2-hydroxy-1-(phenylmethyl)-propyl]-N2-[(phenylmethoxy)carbonyl]-L-lysinamide]",23
2,"CC(C)(C)OC(=O)N[C@@H](Cc1ccccc1)[C@H](O)CNC[C@@H](O)[C@H](Cc1ccccc1)NC(=O)c1ccc2ccccc2n1 [Compound 65, [1S-[1R*,2S*(2S*,3R*)]]-[2-Hydroxy-3-[[2-hydroxy-4-phenyl-3-[(2-quinolinylcarbonyl)-amino]butyl]amino]-1-(phenylmethyl)propyl]carbamic acid, 1,1-dimethylethyl ester]",11
3,"CC(C)C[C@H](NC(=O)OC(C)(C)C)C(O)CN(Cc1ccccc1)CC(O)[C@H](CC(C)C)NC(=O)OC(C)(C)C (stereo partly drawn) [Compound 196, (3S,3S')-[[(Phenylmethyl)nitrilo]-bis(2-hydroxy-5-methyl-3,1-hexandiyl)]-biscarbamic acid, bis(1,1-dimethylethyl)ester]",6
4,"CC(C)(C)OC(=O)N[C@@H](Cc1ccccc1)[C@H](O)CNC[C@@H](O)[C@H](Cc1ccc(OCCN2CCOCC2=O)cc1)NC(=O)OC(C)(C)C [Compound 380, [1S-[1R*, 2S*(2S*, 3R*)]]-[3-[[3-[[(1,1-Dimethylethoxy)carbonyl]amino]-2-hydroxy-4-[4-[2-(3-oxo-4-morpholinyl)ethoxy]phenyl]-butyl]amino]-2-hydroxy-1-(phenylmethyl)propyl]-carbamic acid, 1,1-dimethylethyl ester]",97
5,"CNC(=O)OC(C(=O)N[C@@H](Cc1ccccc1)[C@H](O)CNC[C@@H](O)[C@H](Cc1ccccc1)NC(=O)OC(C)(C)C)C(C)(C)C (stereo partly drawn) [Compound 287, [1S-[1R*,2S*(2S*,3R*)]]-[3-[[3-[[3,3-Dimethyl-2-[[(methylamino)carbonyl]oxy]-1-oxobutyl]amino]-2-hydroxy-4-phenylbutyl]amino]-2-hydroxy-1-(phenylmethyl)propyl]-carbamic acid, 1,1-dimethylethyl ester]",89
6,"CC(C)(C)OC(=O)N[C@@H](Cc1ccccc1)[C@H](O)CNC[C@@H](O)[C@H](Cc1ccccc1)NC(=O)[C@@H](O)c1ccccc1 [Compound 378, [1S-[1R*,2S*[2S*, 3R*(R*)]]]-[3-[[3-[2-Hydroxy-1-oxo-2-phenylethyl)amino]-2-hydroxy-4-phenylbutyl]amino]-2-hydroxy-1-(phenylmethyl)propyl]carbamic acid, 1-dimethylethyl ester]",27
7,"CC(C)(C)OC(=O)N[C@@H](Cc1ccccc1)C(=O)N[C@@H](Cc1ccccc1)[C@H](O)CNC[C@@H](O)[C@H](Cc1ccccc1)NC(=O)OC(C)(C)C [Compound 56, [S-[1R*,2S*(2S*,3R*)]-N^2-[(1,1-Dimethylethoxy)carbonyl]-N-[3-[[3-[[(1,1-dimethlethoxy)carbonyl]amino]-2-hydroxy-4-phenylbutyl]-amino]-2-hydroxy-1-(phenylmethyl)propyl]-L-phenylalaninamide]",47
8,"CC(C)(C)OC(=O)N[C@@H](Cc1ccccc1)[C@H](O)CNC[C@@H](O)[C@H](Cc1ccccc1)NC(=O)OCc1nc(-c2ccccc2)c[nH]1 [Compound 253, [R-(R*,S*)]-[Iminobis[2-hydroxy-1-(phenylmethyl)-3,1-propanediyl)]biscarbamic acid, 1,1-dimethylethyl(4-phenyl-1H-imidazol-2-yl)methyl ester]",85
9,"CC(C)(C)OC(=O)N[C@@H](Cc1ccccc1)C(=O)CNC[C@@H](O)[C@H](Cc1ccccc1)NC(=O)OC(C)(C)C [Compound 193, [1S-[1R*,2S*(3R*)]]-[3-[[3-[[(1,1-Dimethylethoxy)carbonyl]amino]-2-oxo-4-phenylbutyl]amino]-2-hydroxy-1-(phenylmethyl)propyl]carbamic acid, 1,1-dimethylethyl ester]",66
10,"COC(=O)N[C@@H](C(=O)N[C@@H](Cc1ccccc1)[C@H](O)CNC[C@@H](O)[C@H](Cc1ccccc1)NC(=O)OC(C)(C)C)C(C)(C)C (relative stereo) [Compound 340, [1S*,2R*(2R*,3S*)]-N-[3-[[3-[[(1,1-Dimethylethoxy)carbonyl]amino]-2-hydroxy-4-phenylbutyl]amino]-2-hydroxy-1-(phenylmethyl)propyl]-N^2-(2-methoxycarbonyl)-3-methyl-D-valinamide]",56
11,"CC(C)(C)OC(=O)N[C@@H](Cc1ccccc1)[C@H](O)CNC[C@@H](O)[C@H](Cc1ccccc1)NC(=O)C(C)(C)CCO [Compound 291, [1S-[1R*,2S*(2S*,3R*)]]-[2-Hydroxy-3-[[2-hydroxy-3-[(4-hydroxy-2,2-dimethyl-1-oxobutyl)amino]-4-phenylbutyl]amino]-1-(phenylmethyl)propyl]carbamic acid, 1,1-dimethylethyl ester]",73

# The remaining lines, values ahead:
row,inhibition at 10 µM [%],SMILES
1,27,"CC(C)(C)OC(=O)N[C@@H](Cc1ccccc1)[C@H](O)CNC[C@@H](O)[C@H](Cc1ccccc1)NC(=O)C1c2ccccc2CN1C=O (stereo partly drawn) [Compound 270, [1S-[1R*,2S*(2S*,3R*)]]-[3-[[3-[[(2-Formyl-2,3-dihydro-1H-isoindol-1-yl)carbonyl]amino]-2-hydroxy-4-phenylbutyl]amino]-2-hydroxy-1-(phenylmethyl)-propyl]carbamic acid 1,1-dimethylethyl ester]"
2,0,"CC(C)(C)OC(=O)N[C@@H](Cc1ccccc1)C(=O)CN(Cc1ccccc1)CC(O)[C@H](Cc1ccccc1)NC(=O)OC(C)(C)C (stereo partly drawn) [Compound 195, [1S-[1R*(3R*)]]-[3-[[3-[[(1,1-Dimethylethoxy)carbonyl]amino]-2-hydroxy-4-phenylbutyl]-(phenylmethyl)amino]-2-oxo-1-(phenylmethyl)propyl]-carbamic acid, 1,1-dimethylethyl ester]"
3,54,"CC(C)(C)OC(=O)N[C@@H](Cc1ccccc1)[C@H](O)CNC[C@@H](O)[C@H](Cc1ccccc1)NC(=O)C(C)(C)CO [Compound 279, [1S-[1R*,2S*(2S*,3R*)]]-[2-Hydroxy-3-[[2-hydroxy-3-[[2-(hydroxymethyl)-2-methyl-1-oxopropyl]amino]-4-phenylbutyl]amino]-1-(phenylmethyl)propyl]carbamic acid, 1,1-dimethylethyl ester]"
4,14,"CC(C)[C@H](NC(=O)OCc1ccccc1)C(=O)N[C@@H](Cc1ccccc1)[C@@H](O)CNC[C@H](O)[C@H](Cc1ccccc1)NC(=O)OC(C)(C)C [Compound 117, [S-[1R*,2R*(2R*,3R*)]]-N-[3-[[3-[[(1,1-Dimethylethoxy)carbonyl]amino]-2-hydroxy-4-phenylbutyl]amino]-2-hydroxy-1-(phenylmethyl)propyl]-N^2-[(phenylmethoxy)-carbonyl]-L-valinamide]"
